This is an account of results in patent US20240217951A1, “PCSK9 INHIBITORS AND METHODS OF USE THEREOF” (AstraZeneca AB, priority 2022, published 2024).

For experiment [1], the target named is T1, potassium ion channel hERG (human Ether-á-go-go-Related Gene) (Homo sapiens, UniProt Q12809).
T1 construct: expressed in transfected cells; host or cells: Chinese hamster ovary K1 (CHO)
As to the kind of experiment: Assay 5 - hERG assay (SyncroPatch 384PE patch clamp, CHO cells). The note with it: geometric mean; CHO cells over-expressing hERG; read-out: Assay 5 (hERG Hu CHO IF EPh CR-Syncro) GMean IC50. It is filed as cell-based. How it is done: Assay 5—hERG Assay (Human Ether-á-go-go-Related Gene)
This assay (human Ether-á-go-go-Related Gene) measures activity of the compounds at the potassium ion channel hERG (human Ether-á-go-go-Related Gene).
Experiments were performed on the SyncroPatch 384PE high throughput patch clamp platform at room temperature and medium resistance chips with 4 patch holes per site. Chinese hamster ovary K1 (CHO) cell lines over-expressing the ion channel of choice (hERG) were used in assay-ready format and kept in liquid nitrogen or were used from live culture. Cells were either thawed and diluted in HBSS or were detached from flasks and resuspended in HBSS. HBSS comprised 140 mM NaCl, 4 mM KCl, 10 mM HEPES and 5 mM Glucose (pH7.4). The internal patch clamp solution was KF 120 mM, KCl 20 mM, HEPES 10 mM, EGTA 10 mM, and 25 PM Escin (pH 7.2). After the sealing process was complete, the external solution was exchanged for external patch clamp solution comprising NaCl 80 mM, KCl 4 mM, HEPES 10 mM, CaCl2 2 mM, MgCl2 1 mM, glucose 5 mM, and NMDG 60 mM (pH 7.4). All solutions were stored at room temperature, except Escin, which was stored at 4° C. All test compounds were dispensed in greiner-bio 384 well plates and tested in a 6 point cumulative assay (final DMSO concentration 0.33%). Only wells that passed previously agreed acceptance criteria for this platform were used in this analysis (30 MegaOhm seal resistance, Z prime >0.4 and current size >0.2 nA).
(Block of hERG is tested as a sign of cardiac risk.)

The target of the next experiment is PCSK9 (Homo sapiens, UniProt Q8NBP7, G670E/V474I). As to the kind of experiment: biochemical.
Chain of PCSK9 (Q8NBP7 with tags, fused parts or gaps V474I/G670E): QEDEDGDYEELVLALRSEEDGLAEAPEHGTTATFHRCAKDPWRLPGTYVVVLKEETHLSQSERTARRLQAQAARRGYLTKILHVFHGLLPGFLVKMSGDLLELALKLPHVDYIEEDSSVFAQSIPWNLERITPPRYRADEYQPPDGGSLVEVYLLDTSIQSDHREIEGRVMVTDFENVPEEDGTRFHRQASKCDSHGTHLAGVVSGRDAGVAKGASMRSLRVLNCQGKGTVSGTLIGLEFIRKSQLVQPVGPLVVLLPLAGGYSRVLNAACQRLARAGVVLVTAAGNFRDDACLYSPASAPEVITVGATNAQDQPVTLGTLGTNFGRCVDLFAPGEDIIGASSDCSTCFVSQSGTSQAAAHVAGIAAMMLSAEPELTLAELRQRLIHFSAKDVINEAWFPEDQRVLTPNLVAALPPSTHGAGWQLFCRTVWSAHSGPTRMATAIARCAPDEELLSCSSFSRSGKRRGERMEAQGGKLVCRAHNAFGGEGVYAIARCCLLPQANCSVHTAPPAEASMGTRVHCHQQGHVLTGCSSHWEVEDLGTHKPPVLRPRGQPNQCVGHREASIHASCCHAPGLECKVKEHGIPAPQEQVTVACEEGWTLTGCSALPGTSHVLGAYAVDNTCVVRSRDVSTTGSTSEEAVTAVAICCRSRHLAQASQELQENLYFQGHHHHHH
Experiment [2] concerns the target GSK3β (Glycogen synthase kinase-3 beta) (Homo sapiens, UniProt P49841). As to the kind of experiment: Assay 6 - GSK3β assay (ThermoFisher Z-Lyte). The note with it: geometric mean; ATP Conc: 10 μM; read-out: Assay 6 (GSK3β FRET-Z-Lyte CR) GMean IC50 (μM) ATP Conc: 10. Type of experiment: biochemical. Here is the method:
Assay 6—GSK3β Assay (ThermoFisher Assay)
This assay measures the activity of the compounds at GSK3β (Glycogen synthase kinase-3 beta).
The test compounds were screened in 1% DMSO (final) in the well. For 10 point titrations, 3-fold serial dilutions are conducted from the starting concentration of 10 μM.
Bar-coded Corning, low volume NBS, black 384-well plate • 1. 2.5 μL—4× Test Compound or 100 nL 100× plus 2.4 μL kinase buffer • 2. 5 μL—2× Peptide/Kinase Mixture • 3. 2.5 μL—4×ATP Solution • 4. 30-second plate shake • 5. 60-minute Kinase Reaction incubation at room temperature • 6. 5 μL—Development Reagent Solution • 7. 30-second plate shake • 8. 60-minute Development Reaction incubation at room temperature • 9. Read on fluorescence plate reader and analyse the data
In step 2, the 2×GSK3β (GSK3 beta)/Ser/Thr (Glycogen synthase kinase-3 beta/Serine/Threonine) 09 mixture is prepared in 50 mM HEPES (4-(2-hydroxyethyl)-1-piperazineethanesulfonic acid) pH 7.5, 0.01% BRIJ-35, 10 mM MgCl2, 1 mM EGTA (egtazic acid). The final 10 μL Kinase Reaction consists of 0.22-0.92 ng GSK3β (GSK3 beta) and 2 μM Ser/Thr 09 in 50 mM HEPES pH 7.5, 0.01% BRIJ-35, 10 mM MgCl2, 1 mM EGTA.
In step 3 the ATP Solution is diluted to a 4× working concentration in Kinase Buffer (50 mM HEPES pH 7.5, 0.01% BRIJ-35, 10 mM MgCl2, 1 mM EGTA).
In Step 6 the Development Reagent is diluted 1:512 in Development Buffer (10× Novel PKC Lipid Mix: 2 mg/mL Phosphatidyl Serine, 0.2 mg/mL DAG in 20 mM HEPES, pH 7.4, 0.3% CHAPS).
SelectScreen® Kinase Profiling Service uses XLfit from IDBS. The dose response curve is curve fit to model number 205 (sigmoidal dose-response model).

Some results are limits rather than exact numbers.

Chain of GSK3β (Glycogen synthase kinase-3 beta) (P49841 whole entry): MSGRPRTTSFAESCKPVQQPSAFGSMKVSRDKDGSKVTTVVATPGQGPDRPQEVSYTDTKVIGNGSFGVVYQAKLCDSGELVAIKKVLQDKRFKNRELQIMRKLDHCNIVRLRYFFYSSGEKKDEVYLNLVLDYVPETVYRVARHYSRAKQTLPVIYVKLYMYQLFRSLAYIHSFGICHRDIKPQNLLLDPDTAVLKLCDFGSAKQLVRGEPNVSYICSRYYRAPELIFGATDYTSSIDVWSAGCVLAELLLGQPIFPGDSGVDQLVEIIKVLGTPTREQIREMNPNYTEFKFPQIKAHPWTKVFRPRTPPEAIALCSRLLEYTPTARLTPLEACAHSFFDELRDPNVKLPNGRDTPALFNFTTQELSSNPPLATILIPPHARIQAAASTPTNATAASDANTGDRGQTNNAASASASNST
T1 sequence (Q12809 whole entry): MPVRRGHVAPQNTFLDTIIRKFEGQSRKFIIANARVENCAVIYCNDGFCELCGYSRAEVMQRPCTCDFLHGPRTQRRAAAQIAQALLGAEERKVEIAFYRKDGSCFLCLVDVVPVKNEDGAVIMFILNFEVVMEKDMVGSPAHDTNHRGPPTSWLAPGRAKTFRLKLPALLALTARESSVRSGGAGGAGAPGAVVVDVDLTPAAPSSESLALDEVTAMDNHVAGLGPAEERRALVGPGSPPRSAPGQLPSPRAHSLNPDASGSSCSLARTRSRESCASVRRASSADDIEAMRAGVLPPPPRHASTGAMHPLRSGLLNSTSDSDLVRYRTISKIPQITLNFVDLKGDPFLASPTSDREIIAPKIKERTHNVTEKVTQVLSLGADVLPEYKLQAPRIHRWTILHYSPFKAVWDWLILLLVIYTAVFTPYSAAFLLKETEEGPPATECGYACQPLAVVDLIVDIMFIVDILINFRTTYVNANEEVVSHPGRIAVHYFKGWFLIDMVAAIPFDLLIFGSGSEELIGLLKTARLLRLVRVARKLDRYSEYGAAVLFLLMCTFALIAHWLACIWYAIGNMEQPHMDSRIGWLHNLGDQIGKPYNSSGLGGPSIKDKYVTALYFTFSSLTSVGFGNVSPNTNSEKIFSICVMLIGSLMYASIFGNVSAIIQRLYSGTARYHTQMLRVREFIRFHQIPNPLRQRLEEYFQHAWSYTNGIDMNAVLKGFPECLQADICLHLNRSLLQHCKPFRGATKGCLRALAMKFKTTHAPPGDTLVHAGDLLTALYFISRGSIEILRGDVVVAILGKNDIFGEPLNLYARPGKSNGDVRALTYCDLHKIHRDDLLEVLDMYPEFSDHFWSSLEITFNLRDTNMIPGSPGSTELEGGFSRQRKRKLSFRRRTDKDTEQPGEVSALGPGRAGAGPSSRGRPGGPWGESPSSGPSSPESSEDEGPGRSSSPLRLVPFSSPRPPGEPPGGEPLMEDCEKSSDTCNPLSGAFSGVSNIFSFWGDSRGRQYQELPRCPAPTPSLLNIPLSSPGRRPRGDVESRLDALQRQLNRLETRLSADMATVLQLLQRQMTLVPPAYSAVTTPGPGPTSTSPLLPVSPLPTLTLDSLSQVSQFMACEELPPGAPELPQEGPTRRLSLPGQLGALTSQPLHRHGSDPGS

Consider `C[C@@]12C[C@]1(C)C(=O)N(c1ccc(N[C@H]3CC[C@H](Nc4cnc(OC(F)F)cn4)C3)nc1)C2=O` [Example 80, (cis)-3-(6-(((1S,3S)-3-((5-(Difluoromethoxy)pyrazin-2-yl)amino)cyclopentyl)amino)pyridin-3-yl)-1,5-dimethyl-3-azabicyclo[3.1.0]hexane-2,4-dione], for which the IC50 was > 40 µM in experiment [1], 1.03 µM against PCSK9 and > 10 µM in experiment [2].
For `COc1ccc(=O)n(-c2ccc(N[C@H]3CC[C@H](Nc4cnc(C)cn4)C3)nc2)c1` [Example 40, 5-Methoxy-6′-(((1S,3S)-3-((5-methylpyrazin-2-yl)amino)cyclopentyl)amino)-2H-[1,3′-bipyridin]-2-one], the IC50 in experiment [1] stood at 35.5 µM; against PCSK9, 0.067 µM; in experiment [2], 0.192 µM.
Regarding `CNC(=O)c1cnc(N[C@H]2CC[C@H](Nc3ccc(-n4cccc(OC)c4=O)cn3)C2)cn1` (stereo in doubt) [Example 150, 5-(((1S,3S)-3-((3-Methoxy-2-oxo-2H-[1,3′-bipyridin]-6′-yl)amino)cyclopentyl)amino)-N-methylpyrazine-2-carboxamide], the results for the IC50 (in experiment [1]; against PCSK9; in experiment [2]) were > 40.1 µM, 8.7 µM and > 10 µM, respectively.
As to `Cc1cnc(N[C@H]2CC[C@H](Nc3ccc(-n4cc(C#N)ccc4=O)cn3)C2)cn1` [Example 49, 6′-(((1S,3S)-3-((5-Methylpyrazin-2-yl)amino)cyclopentyl)amino)-2-oxo-2H-[1,3′-bipyridine]-5-carbonitrile], the values for the IC50 (in experiment [1]; on PCSK9; in experiment [2]) were > 40 µM, 0.058 µM and > 10 µM, respectively.
Consider `O=C1CC[C@H](CO)N1c1ccc(N[C@H]2CC[C@H](Nc3cnc(OC(F)F)cn3)C2)nc1` [Example 77, (R)-1-(6-(((1S,3S)-3-((5-(Difluoromethoxy)pyrazin-2-yl)amino)cyclopentyl)amino)pyridin-3-yl)-5-(hydroxymethyl)pyrrolidin-2-one], for which the IC50 in experiment [1] is > 40 µM; against PCSK9, 1.53 µM; in experiment [2] it was > 10 µM.
As to `Cn1ncc2ncc(N[C@H]3CC[C@H](Nc4ccc(-n5ccccc5=O)cn4)C3)nc21` [Example 9, 6′-(((1S,3S)-3-((1-Methyl-1H-pyrazolo[3,4-b]pyrazin-6-yl)amino)cyclopentyl)amino)-2H-[1,3′-bipyridin]-2-one], the IC50 was > 40 µM in experiment [1], 0.677 µM at PCSK9 and 5.6 µM in experiment [2].
As to `Cc1ncc(N[C@H]2CC[C@H](Nc3ccc(-n4cc(Cl)ccc4=O)cn3)C2)nc1C` [Example 17, 5-Chloro-6′-(((1S,3S)-3-((5,6-dimethylpyrazin-2-yl)amino)cyclopentyl)amino)-2H-[1,3′-bipyridin]-2-one], the IC50 in experiment [1] was > 40 µM; against PCSK9 it was 0.053 µM; in experiment [2] it was > 10 µM.
`O=c1ccc(Cl)cn1-c1ccc(N[C@H]2CC[C@H](Nc3cnc(Cl)cn3)C2)nc1` [Example 29, 5-Chloro-6′-(((1S,3S)-3-((5-chloropyrazin-2-yl)amino)cyclopentyl)amino)-2H-[1,3′-bipyridin]-2-one]: the IC50 is 11.1 µM in experiment [1], 0.014 µM against PCSK9 and > 10 µM in experiment [2].
Turning to `Cc1cnc(N[C@H]2CC[C@H](Nc3ccc(N4C(=O)CCc5cccnc54)cn3)C2)cn1` [Example 276, 1-(6-(((1S,3S)-3-((5-Methylpyrazin-2-yl)amino)cyclopentyl)amino)pyridin-3-yl)-3,4-dihydro-1,8-naphthyridin-2 (1H)-one], the IC50 in experiment [1] is > 40 µM; on PCSK9 it was 0.08 µM; in experiment [2], > 10 µM.
The corresponding values for `Cc1cnc(N[C@H]2CC[C@H](Nc3ccc(-n4cccc(-c5c[nH]nn5)c4=O)cn3)C2)cn1` [Example 205, 6′-(((1S,3S)-3-((5-Methylpyrazin-2-yl)amino)cyclopentyl)amino)-3-(1H-1,2,3-triazol-4-yl)-2H-[1,3′-bipyridin]-2-one] are > 40.1 µM, 0.007 µM and > 10 µM.
Take `COc1ccc(=O)n(-c2ccc(N[C@H]3CC[C@H](Nc4cnc(C)c(C)n4)C3)nc2)c1` [Example 15, 6′-(((1S,3S)-3-((5,6-Dimethylpyrazin-2-yl)amino)cyclopentyl)amino)-5-methoxy-2H-[1,3′-bipyridin]-2-one]: the half-inhibitory concentration (IC50) in experiment [1] was > 40 µM; at PCSK9 it was 0.118 µM; in experiment [2], 0.874 µM.
Consider `Cc1cnc(N[C@H]2CC[C@H](Nc3ccc(-n4cc(-c5cnn(C)c5)ccc4=O)cn3)C2)cn1` [Example 206, 5-(1-Methyl-1H-pyrazol-4-yl)-6′-(((1S,3S)-3-((5-methylpyrazin-2-yl)amino)cyclopentyl)amino)-2H-[1,3′-bipyridin]-2-one], for which the IC50 was > 40.1 µM in experiment [1], 0.022 µM against PCSK9 and > 10 µM in experiment [2].
With `Cn1ccc2ncc(N[C@H]3CC[C@H](Nc4ccc(-n5ccccc5=O)cn4)C3)nc21` [Example 8, 6′-(((1S,3S)-3-((5-Methyl-5H-pyrrolo[2,3-b]pyrazin-3-yl)amino)cyclopentyl)amino)-2H-[1,3′-bipyridin]-2-one], the IC50 is > 40 µM in experiment [1], 0.257 µM against PCSK9 and > 10 µM in experiment [2].
The corresponding values for `N#Cc1ccc(=O)n(-c2ccc(N[C@H]3CC[C@H](Nc4cnc(OC(F)F)cn4)C3)nc2)c1` [Example 89, 6′-(((1S,3S)-3-((5-(Difluoromethoxy)pyrazin-2-yl)amino)cyclopentyl)amino)-2-oxo-2H-[1,3′-bipyridine]-5-carbonitrile] are 6.8 µM, 0.121 µM and > 10 µM.
With `Cc1nc(N[C@H]2CC[C@H](Nc3ccc(-n4ccccc4=O)cn3)C2)cnc1OC(F)F` [Example 91, 6′-(((1S,3S)-3-((5-(Difluoromethoxy)-6-methylpyrazin-2-yl)amino)cyclopentyl)amino)-2H-[1,3′-bipyridin]-2-one], the IC50 is 9.6 µM in experiment [1], 0.436 µM against PCSK9 and > 10 µM in experiment [2].
On to `Cc1cnc(N[C@H]2CC[C@H](Nc3ccc(-n4nc(Cl)ccc4=O)cn3)C2)cn1` [Example 233, 6-Chloro-2-(6-(((1S,3S)-3-((5-methylpyrazin-2-yl)amino)cyclopentyl)amino)pyridin-3-yl)pyridazin-3 (2H)-one], for which the IC50 in experiment [1] was > 40.1 µM; against PCSK9, 0.024 µM; in experiment [2], > 10 µM.
Regarding `CN1CC(=O)N(c2ccc(N[C@H]3CC[C@H](Nc4cnc(OC(F)F)cn4)C3)nc2)C1=O` [Example 93, 3-(6-(((1S,3S)-3-((5-(Difluoromethoxy)pyrazin-2-yl)amino)cyclopentyl)amino)pyridin-3-yl)-1-methylimidazolidine-2,4-dione], the IC50 in experiment [1] was > 40 µM; at PCSK9, 0.087 µM; in experiment [2] it was > 10 µM.
For the compound `COC(=O)CSc1cnc(N[C@H]2CC[C@H](Nc3ccc(-n4ccccc4=O)cn3)C2)cn1` [Example 164, Methyl 2-((5-(((1S,3S)-3-((2-oxo-2H-[1,3′-bipyridin]-6′-yl)amino)cyclopentyl)amino)pyrazin-2-yl)thio)acetate], the results for the IC50 (in experiment [1]; against PCSK9; in experiment [2]) were > 40.1 µM, 0.451 µM and > 10 µM, respectively.

Usually IC50 stands for the concentration that inhibits the measured activity by half.
